From patent US20250163089A1, “Branched Molecules for Redox Flow Batteries” (XL Batteries, Inc., priority 2023, published 2025)

Assays:
[1] = solvent not stated
[2] = Viscosity of the solution; type: physicochemical; settings: at a concentration of […]

Compound	maximum concentration dissolved, after which solid precipitated from the solution [1] [M]	viscosity [2] [cP]
O=C(O)CCC[c-]1cccc1.[Fe+2].c1cc[cH-]c1 [4-ferrocene butyric acid]	0.251	
N-(4-ferrocenylbutanoyl)-L-glutamate		3.7
